Consider four compounds from patent publication US20250034216A1, “STEREOSELECTIVE COVALENT LIGANDS FOR ONCOGENIC AND IMMUNOLOGICAL PROTEINS” (The Scripps Research Institute, priority 2021, published 2025).

What all share (test): IA-DTB cysteine engagement
Common to all, as to assay type: binding
Holding throughout (conditions): 22Rv1 cells, 20 μM probe, 1 h, relative to DMSO

One experiment concerns the target T1, NELFCD_C169 (Homo sapiens, UniProt Q8IXH7).
T1 construct: endogenous in cells; host or cells: 22Rv1
The method, boiled down: (§1)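 Competitive chemoproteomics: residual cysteine reactivity toward IA-DTB in lysates from probe-treated cells was quantified by TMT reporter ions relative to DMSO-treated controls. Replicates sharing cell line, probe, concentration and duration were averaged.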

The next experiment addresses T2, ZFC3H1_C1778 (Homo sapiens, UniProt O60293).
T2 construct: endogenous in cells; host or cells: 22Rv1
The method, boiled down: as §1

The target of another experiment is T3, SUPT3H_C268 (Homo sapiens, UniProt O75486).
T3 construct: endogenous in cells; host or cells: 22Rv1
T3 sequence (O75486 1-317): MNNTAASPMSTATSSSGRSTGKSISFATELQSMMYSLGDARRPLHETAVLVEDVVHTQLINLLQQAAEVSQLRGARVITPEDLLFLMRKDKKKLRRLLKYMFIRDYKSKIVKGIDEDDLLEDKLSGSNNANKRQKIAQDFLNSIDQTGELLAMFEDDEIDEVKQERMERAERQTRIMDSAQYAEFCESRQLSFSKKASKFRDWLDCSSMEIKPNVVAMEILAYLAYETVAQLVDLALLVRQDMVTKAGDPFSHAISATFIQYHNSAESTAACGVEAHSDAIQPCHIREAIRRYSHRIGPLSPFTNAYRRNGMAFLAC
Put shortly:
as §1

T1 sequence (Q8IXH7 whole entry): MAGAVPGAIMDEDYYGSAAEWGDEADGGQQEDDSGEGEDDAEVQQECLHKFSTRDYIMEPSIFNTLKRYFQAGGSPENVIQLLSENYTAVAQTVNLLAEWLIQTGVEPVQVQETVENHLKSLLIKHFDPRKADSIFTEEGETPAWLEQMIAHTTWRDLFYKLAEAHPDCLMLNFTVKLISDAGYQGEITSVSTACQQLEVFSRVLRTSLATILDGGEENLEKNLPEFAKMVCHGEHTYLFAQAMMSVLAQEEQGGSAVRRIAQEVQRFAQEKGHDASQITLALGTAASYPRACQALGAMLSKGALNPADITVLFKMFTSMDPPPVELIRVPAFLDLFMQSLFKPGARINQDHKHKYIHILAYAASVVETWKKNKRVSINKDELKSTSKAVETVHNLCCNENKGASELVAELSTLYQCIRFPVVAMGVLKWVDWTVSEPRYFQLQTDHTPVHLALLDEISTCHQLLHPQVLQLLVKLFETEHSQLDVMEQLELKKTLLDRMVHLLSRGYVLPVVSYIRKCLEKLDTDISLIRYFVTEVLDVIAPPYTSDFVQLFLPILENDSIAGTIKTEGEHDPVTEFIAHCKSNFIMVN
T2 sequence (O60293 whole entry): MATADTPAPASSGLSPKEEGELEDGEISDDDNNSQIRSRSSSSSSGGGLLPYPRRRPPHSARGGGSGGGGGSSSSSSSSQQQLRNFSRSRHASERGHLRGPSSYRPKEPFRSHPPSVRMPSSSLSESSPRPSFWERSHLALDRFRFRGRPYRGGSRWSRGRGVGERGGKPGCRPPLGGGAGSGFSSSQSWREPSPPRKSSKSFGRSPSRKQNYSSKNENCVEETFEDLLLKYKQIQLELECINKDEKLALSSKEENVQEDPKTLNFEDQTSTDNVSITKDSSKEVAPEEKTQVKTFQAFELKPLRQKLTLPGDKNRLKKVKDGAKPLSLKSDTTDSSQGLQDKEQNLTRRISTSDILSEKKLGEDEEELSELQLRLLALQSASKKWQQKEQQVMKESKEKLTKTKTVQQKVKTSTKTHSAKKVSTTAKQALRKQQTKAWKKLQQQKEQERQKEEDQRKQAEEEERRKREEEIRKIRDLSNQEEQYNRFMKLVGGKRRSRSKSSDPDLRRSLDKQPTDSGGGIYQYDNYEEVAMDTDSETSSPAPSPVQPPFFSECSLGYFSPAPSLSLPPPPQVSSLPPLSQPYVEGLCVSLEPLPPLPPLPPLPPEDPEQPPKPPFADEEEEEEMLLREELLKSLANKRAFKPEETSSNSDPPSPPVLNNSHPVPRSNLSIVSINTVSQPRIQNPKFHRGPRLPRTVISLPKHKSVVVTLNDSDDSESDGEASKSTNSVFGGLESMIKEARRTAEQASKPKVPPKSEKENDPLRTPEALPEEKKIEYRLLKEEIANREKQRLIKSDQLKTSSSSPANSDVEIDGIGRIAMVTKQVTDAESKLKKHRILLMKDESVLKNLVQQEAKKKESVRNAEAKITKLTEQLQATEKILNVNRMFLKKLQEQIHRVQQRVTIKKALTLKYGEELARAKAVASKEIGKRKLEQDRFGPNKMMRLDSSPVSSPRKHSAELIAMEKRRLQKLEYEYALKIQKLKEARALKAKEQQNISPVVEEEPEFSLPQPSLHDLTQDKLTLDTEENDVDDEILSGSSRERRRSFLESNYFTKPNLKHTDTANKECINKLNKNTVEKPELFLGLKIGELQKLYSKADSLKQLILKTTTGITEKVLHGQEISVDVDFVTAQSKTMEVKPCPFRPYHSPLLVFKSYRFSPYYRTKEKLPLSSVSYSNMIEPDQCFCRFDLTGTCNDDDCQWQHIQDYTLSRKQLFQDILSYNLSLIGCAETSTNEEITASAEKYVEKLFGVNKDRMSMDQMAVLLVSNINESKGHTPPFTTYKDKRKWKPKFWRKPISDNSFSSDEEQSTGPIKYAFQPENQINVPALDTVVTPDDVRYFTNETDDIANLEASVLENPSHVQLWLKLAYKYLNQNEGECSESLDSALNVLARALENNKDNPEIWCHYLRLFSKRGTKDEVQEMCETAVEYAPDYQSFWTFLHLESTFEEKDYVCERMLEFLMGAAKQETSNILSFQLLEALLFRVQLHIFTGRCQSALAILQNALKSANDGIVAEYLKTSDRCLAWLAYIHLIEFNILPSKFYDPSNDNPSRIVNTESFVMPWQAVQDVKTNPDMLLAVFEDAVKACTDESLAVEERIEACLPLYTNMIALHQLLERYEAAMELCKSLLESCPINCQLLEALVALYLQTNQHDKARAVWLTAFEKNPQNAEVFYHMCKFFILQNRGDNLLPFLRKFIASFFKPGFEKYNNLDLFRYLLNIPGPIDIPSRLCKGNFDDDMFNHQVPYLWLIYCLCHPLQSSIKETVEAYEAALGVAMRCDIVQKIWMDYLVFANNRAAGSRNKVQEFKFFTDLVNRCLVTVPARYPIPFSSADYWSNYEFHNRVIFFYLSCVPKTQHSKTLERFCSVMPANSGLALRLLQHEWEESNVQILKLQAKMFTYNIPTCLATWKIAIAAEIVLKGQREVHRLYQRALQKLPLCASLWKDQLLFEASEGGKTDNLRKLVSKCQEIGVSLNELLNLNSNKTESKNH

For the compound `C=CC(=O)N1C[C@H](c2ccc(Br)cc2)[C@@H]1C(=O)Nc1cccc2cccnc12` [MY-1B, (2R,3S)-1-acryloyl-3-(4-bromophenyl)-N-(quinolin-8-yl)azetidine-2-carboxamide], the “% engagement NELFCD_C169” value at NELFCD_C169 turned out to be 41.75%. On ZFC3H1_C1778, the “% engagement ZFC3H1_C1778” value was 7%. The “% engagement SUPT3H_C268” value at SUPT3H_C268 is 34.5%.

Take `C=CC(=O)N1C[C@H](c2ccc(Br)cc2)[C@H]1C(=O)Nc1cccc2cccnc12` [MY-3B, (2S,3S)-1-acryloyl-3-(4-bromophenyl)-N-(quinolin-8-yl)azetidine-2-carboxamide]: the “% engagement NELFCD_C169” value at NELFCD_C169 turned out to be 69.5%. Also, the “% engagement ZFC3H1_C1778” value at ZFC3H1_C1778 was −22.75%. In addition, the “% engagement SUPT3H_C268” value at SUPT3H_C268 is on record as 70.5%.

In the case of `C=CC(=O)N1C[C@H](c2ccc(Br)cc2)[C@H]1C(=O)Nc1cccc2cccnc12` [MY-3A, (2S,3S)-1-acryloyl-3-(4-bromophenyl)-N-(quinolin-8-yl)azetidine-2-carboxamide], the “% engagement NELFCD_C169” value at NELFCD_C169 turned out to be 40.75%. The “% engagement ZFC3H1_C1778” value on ZFC3H1_C1778 was found to be 47.75%. Moreover, the “% engagement SUPT3H_C268” value at SUPT3H_C268 is listed as 62.5%.

Take `C=CC(=O)N1C[C@@H](c2ccc(Br)cc2)[C@H]1C(=O)Nc1cccc2cccnc12` [MY-1A, (2S,3R)-1-acryloyl-3-(4-bromophenyl)-N-(quinolin-8-yl)azetidine-2-carboxamide]: the “% engagement NELFCD_C169” value at NELFCD_C169 amounted to 51%. Moreover, the “% engagement ZFC3H1_C1778” value at ZFC3H1_C1778 stood at 70.75%. Moreover, at SUPT3H_C268, the “% engagement SUPT3H_C268” value was 27%.
